Test results published in the NIST ThermoML archive (doi:10.1021/je049788h).

Conditions: 101.3 kPa, Liquid; for viscosity: Capillary tube (Ostwald / Ubbelohde) method; for mass density: Vibrating tube method

COCCOCCOCCOCCOC [2,5,8,11,14-pentaoxapentadecane]
Conditions | mass density [kg/m3] | viscosity [mPa·s]
298.15 K | 1006.65 | 3.38
313.15 K | 993.28 | 2.42
323.15 K | 984.05 | 2.004
333.15 K | 974.8 | 1.69
343.15 K | 965.55 | 1.42
